Tests used:
HCV replicon genotype 1a = test: microbe, parasite or virus in culture; type: cell-based; conditions: genotype 1a replicon cells, incubated 96 hours, NS3/4A ELISA readout
HCV replicon genotype 1b = test: microbe, parasite or virus in culture; type: cell-based; conditions: genotype 1b replicon cells, incubated 96 hours, NS3/4A ELISA readout

Row | Structure (SMILES) | IC50 (HCV replicon genotype 1a; Hepatitis C virus, 96 h) [nM] | IC50 (HCV replicon genotype 1b; Hepatitis C virus, 96 h) [nM] | IC50 (HCV replicon genotype 1a) [nM] | IC50 (HCV replicon genotype 1b) [nM]
1 | CNC(=O)c1c(-c2ccc(F)cc2)oc2cc(N(C)S(C)(=O)=O)c(-c3ccc4c(n3)-c3nc5cccnc5n3CO4)cc12 [Compound 137] | 44 | 7.9 | – | –
2 | CNC(=O)c1c(-c2ccc(F)cc2)oc2cc(N(C)S(C)(=O)=O)c(-c3ccc4c(n3)-c3cc5c(F)cccc5n3C(CCO)O4)cc12 (stereo not drawn) [Compound 99, 5-(11-fluoro-6-(2-hydroxyethyl)-6H-pyrido[2′,3′:5,6][1,3]oxazino[3,4-a]indol-2-yl)-2-(4-fluorophenyl)-N-methyl-6-(N-methylmethylsulfonamido)benzofuran-3-carboxamide] | 1.9 | 4.6 | – | –
3 | CNC(=O)c1c(-c2ccc(F)cc2)oc2cc(N(C)S(C)(=O)=O)c(-c3cc4c(cn3)OC(CO)n3c-4cc4c(F)cccc43)cc12 (stereo not drawn) [Compound 90] | – | – | 5.5 | 2.4
4 | Cc1n[nH]c(-c2c(-c3ccc(F)cc3)oc3cc(N(C)S(C)(=O)=O)c(-c4ccc5c(n4)-c4cc6c(F)cccc6n4CO5)cc23)n1 [Compound 161, N-(5-(11-fluoro-6H-pyrido[2′,3′:5,6][1,3]oxazino[3,4-a]indol-2-yl)-2-(4-fluorophenyl)-3-(3-methyl-1H-1,2,4-triazol-5-yl)benzofuran-6-yl)-N-methylmethanesulfonamide] | 32 | 54 | – | –
5 | CNC(=O)c1c(-c2ccc(F)cc2)oc2cc(N(C)S(C)(=O)=O)c(-c3ccc4c(c3)-c3cc5ccccc5n3CC(O)CO4)cc12 (stereo not drawn) [Compound 75, 2-(4-fluorophenyl)-5-(7-hydroxy-7,8-dihydro-6H-benzo[2,3][1,5]oxazocino[5,4-a]indol-2-yl)-N-methyl-6-(N-methylmethylsulfonamido)benzofuran-3-carboxamide] | 2.8 | 2.6 | – | –
6 | CNC(=O)c1c(-c2ccc(F)cc2)oc2cc(N(CCN3CCOCC3)S(C)(=O)=O)c(-c3ccc4c(n3)-c3cc5c(F)cccc5n3CO4)cc12 [Compound 211, 5-(11-fluoro-6H-pyrido[2′,3′:5,6][1,3]oxazino[3,4-a]indol-2-yl)-2-(4-fluorophenyl)-N-methyl-6-(N-(2-morpholinoethyl)methylsulfonamido)benzofuran-3-carboxamide] | 6.5 | 12 | – | –
7 | CNC(=O)c1c(-c2ccc(F)cc2)oc2cc(N(C)S(C)(=O)=O)c(-c3ccc4c(n3)-c3c(Cl)c5c(Cl)cccc5n3CO4)cc12 [Compound 57] | 11 | 13 | – | –
8 | CNC(=O)c1c(-c2ccc(F)cc2)oc2cc(N(C)S(C)(=O)=O)c(-c3ccc4c(n3)-c3cc5c(F)cccc5n3C(CNC(=O)[C@@H](NC(=O)OC)C(C)C)O4)cc12 (stereo partly drawn) [Compound 127] | – | – | 3.5 | 1.6
9 | CNC(=O)c1c(-c2ccc(F)cc2)oc2cc(N(C)S(C)(=O)=O)c(-c3ccc4c(n3)-c3cc5c(F)cccc5n3C(CO)O4)cc12 (stereo not drawn) [Compound 88, 5-(11-fluoro-6-(hydroxymethyl)-6H-pyrido[2′,3′:5,6][1,3]oxazino[3,4-a]indol-2-yl)-2-(4-fluorophenyl)-N-methyl-6-(N-methylmethylsulfonamido)benzofuran-3-carboxamide] | – | – | 2.7 | 2.6
10 | CNC(=O)c1c(-c2ccc(F)cc2)oc2cc(N(C)S(C)(=O)=O)c(-c3ccc4c(c3)-c3cc5ccccc5n3CC(NC3CCN(C)CC3)CO4)cc12 (stereo not drawn) [Compound 82] | 15 | 11 | – | –
11 | CN(c1cc2oc(-c3ccc(F)cc3)c(-c3nnco3)c2cc1-c1ccc2c(n1)-c1cc3c(F)cccc3n1CO2)S(C)(=O)=O [Compound 159, N-(5-(11-fluoro-6H-pyrido[2′,3′:5,6][1,3]oxazino[3,4-a]indol-2-yl)-2-(4-fluorophenyl)-3-(1,3,4-oxadiazol-2-yl)benzofuran-6-yl)-N-methylmethanesulfonamide] | 11 | 22 | – | –
12 | CNC(=O)c1c(-c2ccc(F)cc2)oc2cc(N(C)S(C)(=O)=O)c(-c3cc4c(cn3)OC(CO)n3c-4cc4c(F)cccc43)cc12 (stereo not drawn) [Compound 89] | – | – | 1.1 | 0.9
13 | CNC(=O)c1c(-c2ccc(F)cc2)oc2cc(N(C)S(C)(=O)=O)c(-c3ccc4c(n3)-c3cc5c(F)cccc5n3C(CCO)O4)cc12 (stereo not drawn) [Compound 100, 5-(11-fluoro-6-(2-hydroxyethyl)-6H-pyrido[2′,3′:5,6][1,3]oxazino[3,4-a]indol-2-yl)-2-(4-fluorophenyl)-N-methyl-6-(N-methylmethylsulfonamido)benzofuran-3-carboxamide] | – | – | 3.3 | 3.6
14 | CNC(=O)c1c(-c2ccc(F)cc2)oc2cc(N(C)S(C)(=O)=O)c(-c3ccc4c(c3)-c3[nH]c5ccccc5c3C(C(C)(C)C)O4)cc12 (stereo not drawn) [Compound 64] | 71 | 44 | – | –
15 | CNC(=O)c1c(-c2ccc(F)cc2)oc2cc(N(CCC3(O)CC3)S(C)(=O)=O)c(-c3ccc4c(n3)-c3cc5c(F)cccc5n3CO4)cc12 [Compound 204] | 8.1 | 19 | – | –
16 | CNC(=O)c1c(-c2ccc(F)cc2)oc2cc(N(C)S(C)(=O)=O)c(-c3ccc4c(n3)-c3cc5nc(OC)ccc5n3CO4)cc12 [Compound 45, 2-(4-fluorophenyl)-5-(10-methoxy-6H-pyrido[2,3-e]pyrido[2′,3′:4,5]pyrrolo[1,2-c][1,3]oxazin-2-yl)-N-methyl-6-(N-methylmethylsulfonamido)benzofuran-3-carboxamide] | 9.2 | 11 | – | –
17 | CNC(=O)c1c(-c2ccc(F)cc2)oc2cc(N(C)S(C)(=O)=O)c(-c3ccc4c(n3)-c3cc5c(F)cccc5n3C(C(=O)NC(C)C)O4)cc12 (stereo not drawn) [Compound 111] | 4.5 | 4.3 | – | –

Row | Structure (SMILES) | IC50 (HCV replicon genotype 1a; Hepatitis C virus, 96 h) [nM] | IC50 (HCV replicon genotype 1b; Hepatitis C virus, 96 h) [nM] | IC50 (HCV replicon genotype 1a) [nM] | IC50 (HCV replicon genotype 1b) [nM]
18 | CNC(=O)c1c(-c2ccc(F)cc2)oc2cc(N(C)S(C)(=O)=O)c(-c3ccc4c(n3)-c3c(C(O)C(=O)O)c5c(F)cccc5n3CO4)cc12 (stereo not drawn) [Compound 207, 2-(11-fluoro-2-(2-(4-fluorophenyl) -3-(methylcarbamoyl)-6-(N-methylmethylsulfonamido)benzofuran-5-yl)-6H-pyrido[2′,3′:5,6][1,3]oxazino[3,4-a]indol-12-yl)-2-hydroxyacetic acid] | 3.3 | 2.1 | – | –
19 | CNC(=O)c1c(-c2ccc(F)cc2)oc2cc(N(C)S(C)(=O)=O)c(-c3ccc4c(c3)-c3[nH]c5ccccc5c3C3(CCCC3)O4)cc12 [Compound 65] | 11 | 19 | – | –
20 | CNC(=O)c1c(-c2ccc(F)cc2)oc2cc(N(C)S(C)(=O)=O)c(-c3ccc4c(n3)-c3cc5c(F)cccc5n3C(C(C)(C)O)O4)cc12 (stereo not drawn) [Compound 101, 5-(11-fluoro-6-(2-hydroxypropan-2-yl)-6H-pyrido[2′,3′,5,6][1,3]oxazino[3,4-a]indol-2-yl)-2-(4-fluorophenyl)-N-methyl-6-(N-methylmethylsulfonamido)benzofuran-3-carboxamide] | 5.8 | 8.7 | – | –
21 | CNC(=O)c1c(-c2ccc(F)cc2)oc2cc(N(C)S(C)(=O)=O)c(-c3ccc4c(n3)-c3cc5cc(F)ccc5n3CO4)cc12 [Compound 3] | 2 | 3.7 | – | –
22 | CNC(=O)c1c(-c2ccc(F)cc2)oc2cc(N(C)S(C)(=O)=O)c(-c3cnc4c(c3)-c3nc5ccccn5c3CO4)cc12 [Compound 144, 2-(4-fluorophenyl)-N-methyl-6-[methyl(methylsulfonyl)amino]-5-(6H pyrido[1″,2″:1′,2′]imidazo[4′,5′:4,5]pyrano[2,3-b]pyridin-2-yl)-1-benzofuran-3-carboxamide] | 2.9 | 1.9 | – | –
23 | CNC(=O)c1c(-c2ccc(F)cc2)oc2cc(N(CC(C)O)S(C)(=O)=O)c(-c3ccc4c(n3)-c3cc5c(F)cccc5n3CO4)cc12 (stereo not drawn) [Compound 202] | 2.8 | 8.8 | – | –
24 | CNC(=O)c1c(-c2ccc(F)cc2)oc2cc(N(C)S(C)(=O)=O)c(-c3ccc4c(n3)-c3cc5c(F)cccc5n3C(C(=O)NC)O4)cc12 (stereo not drawn) [Compound 109] | 2 | – | – | 2.1
25 | CNC(=O)c1c(-c2ccc(F)cc2)oc2cc(CN)c(-c3ccc4c(n3)-c3cc5c(F)cccc5n3CO4)cc12 [Compound 181] | 13 | 14 | – | –
26 | CNC(=O)c1c(-c2ccc(F)cc2)oc2cc(N(C)S(C)(=O)=O)c(-c3cnc4c(n3)-c3cc5c(F)cccc5n3CO4)cc12 [Compound 25] | 1 | 1.8 | – | –
27 | CNC(=O)c1c(-c2ccc(F)cc2)oc2cc(N(CC(F)F)S(C)(=O)=O)c(-c3ccc4c(n3)-c3cc5ccccc5n3CO4)cc12 [Compound 185] | 7.9 | 16 | – | –
28 | CNC(=O)c1c(-c2ccc(F)cc2)oc2cc(N(C)S(C)(=O)=O)c(-c3ccc4c(n3)-c3cc5ccc(C#N)cc5n3CO4)cc12 [Compound 22] | 3.5 | 1.9 | – | –
29 | CCNC(=O)C1Oc2ccc(-c3cc4c(C(=O)NC)c(-c5ccc(F)cc5)oc4cc3N(C)S(C)(=O)=O)nc2-c2cc3c(F)cccc3n21 (stereo not drawn) [Compound 107] | – | – | 1.5 | 0.7
30 | CNC(=O)c1c(-c2ccc(F)cc2)oc2cc(-c3ccoc3)c(-c3ccc4c(n3)-c3cc5c(F)cccc5n3CO4)cc12 [Compound 167] | 21 | 17 | – | –
31 | CNC(=O)c1c(-c2ccc(F)cc2)oc2cc(N(C)S(C)(=O)=O)c(-c3ccc4c(c3)-c3cc5ccccc5n3CO4)cc12 [Compound 10] | 1.6 | 2.4 | – | –
32 | CNC(=O)c1c(-c2ccc(F)cc2)oc2cc(N(C)S(C)(=O)=O)c(-c3ccc4c(n3)-c3cc5c(F)cccc5n3CO4)cc12 [Compound 2, 5-(11-fluoro-6H-pyrido[2′,3′:5,6][1,3]oxazino[3,4-a]indol-2-yl)-2-(4-fluorophenyl)-N-methyl-6-(N-methylmethylsulfonamido)benzofuran-3-carboxamide] | 1.6 | 2.7 | – | –
33 | CNC(=O)c1c(-c2ccc(F)cc2)oc2cc(N(C)S(C)(=O)=O)c(-c3ccc4c(c3)-c3nc5ccccc5n3CO4)cc12 [Compound 133, 5-(6H-benzo[e]benzo[4,5]imidazo[1,2-c][1,3]oxazin-2-yl)-2-(4-fluorophenyl)-N-methyl-6-(N-methylmethylsulfonamido)benzofuran-3-carboxamide] | 2.6 | 3.2 | – | –

From US9265773B2, “Tetracyclic heterocycle compounds and methods of use thereof for the treatment of viral diseases” (priority 2011, dated 2016)
